Where “and” joins values, the source holds several entries; their conditions need not be identical. Identical values can stand only once. Marks after values point to notes of the source that are not given here.
What was measured:
porcine albumin [1] = target: T1, porcine albumin (Sus scrofa, UniProt P08835); experiment: Stability in porcine albumin solution; type: in vitro ADME; details: porcine albumin 17.5 mg/mL in PBS; 30 min, 37 °C
FAAH = target: T2, FAAH (Rattus norvegicus, UniProt P97612); experiment: Inhibition of fatty acid amide hydrolase; type: biochemical
T2 sequence (P97612 1-579): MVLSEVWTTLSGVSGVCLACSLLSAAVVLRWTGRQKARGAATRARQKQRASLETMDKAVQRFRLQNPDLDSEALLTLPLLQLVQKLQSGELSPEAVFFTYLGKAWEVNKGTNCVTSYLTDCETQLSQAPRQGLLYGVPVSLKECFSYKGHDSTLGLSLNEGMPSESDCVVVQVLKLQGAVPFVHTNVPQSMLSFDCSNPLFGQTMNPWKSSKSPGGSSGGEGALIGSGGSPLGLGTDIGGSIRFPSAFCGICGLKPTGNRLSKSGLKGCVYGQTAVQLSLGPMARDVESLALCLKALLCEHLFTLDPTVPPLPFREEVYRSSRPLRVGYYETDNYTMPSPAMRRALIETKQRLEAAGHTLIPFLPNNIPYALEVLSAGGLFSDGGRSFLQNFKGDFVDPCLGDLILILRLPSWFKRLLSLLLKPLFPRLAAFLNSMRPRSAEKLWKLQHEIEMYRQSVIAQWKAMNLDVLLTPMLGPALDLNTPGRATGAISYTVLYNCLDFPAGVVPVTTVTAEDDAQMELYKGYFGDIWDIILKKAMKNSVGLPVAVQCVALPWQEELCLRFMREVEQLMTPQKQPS

[2] = Metabolic stability in porcine blood plasma; type: in vitro ADME; details: for stability porcine blood plasma (percent of parent remaining): Table 3, 30 min, 37 °C, n = 3 unless otherwise stated; for metabolic stability porcine plasma (percent of parent remaining): Table 1, 30 min incubation, n = 3
[3] = Metabolic stability in porcine liver S9 fraction; type: in vitro ADME; details: 30 min; for stability porcine liver S9 fractions (percent of parent remaining): 37 °C, no NADPH added; for stability in the absence of BNNP (percent of parent remaining) / stability in the presence of BNNP (percent of parent remaining): porcine liver homogenate; for stability in the presence of BNNP (percent of parent remaining): carboxylesterase 1 inhibitor BNPP 1 mM
BuChE = BuChE (Equus caballus, UniProt P81908); experiment: Inhibition of butyrylcholinesterase; type: biochemical, horse; details: read-out: BuChE inhibition at 10 μM
BuChE, sequence (P81908 whole entry): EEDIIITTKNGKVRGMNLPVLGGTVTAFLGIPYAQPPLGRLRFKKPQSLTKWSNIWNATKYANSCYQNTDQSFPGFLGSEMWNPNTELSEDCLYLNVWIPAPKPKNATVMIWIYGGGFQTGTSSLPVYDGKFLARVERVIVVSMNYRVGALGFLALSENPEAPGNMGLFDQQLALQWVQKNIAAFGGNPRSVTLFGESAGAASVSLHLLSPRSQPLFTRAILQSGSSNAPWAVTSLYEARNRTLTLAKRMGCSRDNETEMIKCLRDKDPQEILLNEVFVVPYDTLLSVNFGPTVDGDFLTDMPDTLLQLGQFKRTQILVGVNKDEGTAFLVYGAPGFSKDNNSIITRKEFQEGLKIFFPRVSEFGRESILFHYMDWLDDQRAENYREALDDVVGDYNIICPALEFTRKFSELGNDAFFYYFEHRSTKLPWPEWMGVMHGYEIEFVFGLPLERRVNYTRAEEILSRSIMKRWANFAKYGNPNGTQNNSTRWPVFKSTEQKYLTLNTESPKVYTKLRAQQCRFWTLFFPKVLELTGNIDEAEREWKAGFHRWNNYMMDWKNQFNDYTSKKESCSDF

[4] = Chemical stability in aqueous solution; type: physicochemical; details: PBS buffer pH 7.4 with 0.2% Triton X-100; 60 min, 37 °C
human recombinant MAGL = target: T3, human recombinant MAGL (Homo sapiens, UniProt Q99685); experiment: Inhibition of monoacylglycerol lipase; type: biochemical
T3 sequence (Q99685 1-303): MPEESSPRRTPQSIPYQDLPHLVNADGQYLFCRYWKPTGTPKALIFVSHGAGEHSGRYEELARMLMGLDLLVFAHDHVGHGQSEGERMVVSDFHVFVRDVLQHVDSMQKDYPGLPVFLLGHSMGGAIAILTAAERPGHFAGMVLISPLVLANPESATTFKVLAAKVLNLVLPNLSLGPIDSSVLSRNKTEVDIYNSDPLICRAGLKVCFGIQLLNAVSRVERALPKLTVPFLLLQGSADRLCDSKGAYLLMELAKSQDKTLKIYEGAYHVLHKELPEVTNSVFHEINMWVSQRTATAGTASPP

porcine albumin [5] = target: T1, porcine albumin; experiment: Reaction with porcine albumin investigated by MS; details: 60 min, 37 °C; molar ratio compound/albumin 4:1
[6] = Metabolic stability in rat liver S9 fraction; type: in vitro ADME; details: 30 min incubation in the presence of NADPH

T1 sequence (P08835 25-607): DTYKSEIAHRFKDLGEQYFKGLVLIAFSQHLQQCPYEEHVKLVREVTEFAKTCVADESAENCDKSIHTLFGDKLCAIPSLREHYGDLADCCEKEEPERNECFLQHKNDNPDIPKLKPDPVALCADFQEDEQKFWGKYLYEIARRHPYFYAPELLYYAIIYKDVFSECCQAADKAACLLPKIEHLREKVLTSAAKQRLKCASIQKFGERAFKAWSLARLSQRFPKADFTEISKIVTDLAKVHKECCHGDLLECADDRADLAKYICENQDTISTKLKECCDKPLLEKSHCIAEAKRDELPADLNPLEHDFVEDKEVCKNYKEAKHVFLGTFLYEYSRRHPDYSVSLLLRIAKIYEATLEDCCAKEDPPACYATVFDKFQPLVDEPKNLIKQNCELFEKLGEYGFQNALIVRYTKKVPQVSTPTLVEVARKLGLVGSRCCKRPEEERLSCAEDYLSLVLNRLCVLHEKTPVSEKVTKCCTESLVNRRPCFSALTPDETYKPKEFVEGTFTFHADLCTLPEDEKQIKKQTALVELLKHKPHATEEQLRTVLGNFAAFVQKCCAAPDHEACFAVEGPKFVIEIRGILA

| SMILES | stability porcine albumin solution (percent of parent remaining) (porcine albumin [1]) | IC50 (FAAH) [nM] | stability porcine blood plasma (percent of parent remaining) [2] [%] | stability porcine liver S9 fractions (percent of parent remaining) [3] [%] | inhibition at 10 µM (BuChE) [%] | stability in PBS buffer (percent of parent remaining) [4] [%] | IC50 (human recombinant MAGL) [nM] | number of carbamate molecules bound to albumin in the most intense MS signal (porcine albumin [5]) | stability in the absence of BNNP (percent of parent remaining) [3] [%] | stability in the presence of BNNP (percent of parent remaining) [3] [%] | decrease in FAAH inhibitory activity compared with compound 14 (FAAH; ratio of FAAH IC50 values) | metabolic stability porcine plasma (percent of parent remaining) [2] [%] | metabolic stability rat liver S9 fraction (percent of parent remaining) [6] [%] |
| --- | --- | --- | --- | --- | --- | --- | --- | --- | --- | --- | --- | --- | --- |
| O=C(O)Cc1ccc(OC(=O)NCCCCCn2ccc3ccc(F)cc32)cc1 [Compound 39, 2-[4-({[5-(6-Fluoroindol-1-yl)pentyl]carbamoyl}oxy)phenyl]acetic Acid] | >95% | 14 | 88 ± 4 | 85 ± 3 | 38 | >95 |  |  |  |  |  |  |  |
| Cc1ccncc1OC(=O)NCCCCCn1ccc2ccc(F)cc21 [Compound 46, 4-Methylpyridin-3-yl N-[5-(6-fluoroindol-1-yl)pentyl]carbamate] | 68% and 68 ± 6% | 3 | 8 ± 2 | 56 ± 8 |  | 74 ± 4 | 150 | dual | 56 ± 8 | 76 ± 5 |  |  |  |
| O=C(O)Cc1ccccc1OC(=O)NCCCCCn1ccc2ccc(F)cc21 [Compound 43] | 89 ± 3% | 4200 | 89 ± 1 | 82 ± 5 | 34 | >95 |  |  |  |  | more than 100 fold |  |  |
| O=C(NCCCCCn1ccc2ccc(F)cc21)Oc1ccccc1 [Compound 14, Phenyl N-[5-(6-Fluoroindol-1-yl)pentyl]carbamate] | 93 ± 6^n = 6% | 29 |  |  |  | >95 |  |  | 76 ± 2 | 87 ± 9 |  | 80 ± 6 | 66 ± 8 |
| O=C(OC(C(F)(F)F)C(F)(F)F)N1CCN(Cc2ccc(C(F)(F)F)cc2N2CCCC2)CC1 [ABX-1431 (2), reference compound] | 87 ± 6% |  | 95 ± 2 | 81 ± 3 |  | 90 ± 5 |  |  |  |  |  | 95 ± 2 | 92 ± 2 |
| Cc1cncc(OC(=O)NCCCCCn2ccc3ccc(F)cc32)c1 [Compound 47] | 37% and 37 ± 4% | 2 | <5 | 57 ± 5 |  | 72 ± 4 | 150 | three |  |  |  |  |  |
| NC(=O)c1cccc(-c2cccc(OC(=O)NC3CCCCC3)c2)c1 [URB597 (1), reference compound] | 95 ± 7% |  |  | 80 ± 4 | 35 | >95 |  |  |  |  |  |  |  |

From article PMC8158844 (ACS Omega, 2021)
